Experiment [1] relates to YH9-RC deposited under KCTC 0730BP. The experiment is described as follows: microbe, parasite or virus in culture. In kind it is cell-based. To be noted: Janthinobacterium lividum, read-out: EC50 (decrease luminescence by 50%). On the procedure:
Toxicity tests for a variety of substances described in the following Table 2 were conducted using YH9-RC deposited under KCTC 0730BP obtained in the Example 1 to calculate EC50 (Effective concentration 50: the effective concentration of tested organism that decrease luminescence by 50%). It was compared with the EC50 value using oceanic luminescent bacterium (Vibrio sp. Isolate) that was most commonly used in a conventional toxicity test. First, the YH9-RC colony was cultured in an R2A broth containing 5 μg/ml of tetracycline (liquid culture medium containing Bacto yeast extract 0.5 wt %, Bacto proteose peptone No. 3 0.5 wt %, Bacto casamino acids 0.5 wt %, Bacto dextrose 0.5 wt %, soluble starch 0.5 wt %, sodium pyruvate 0.5 wt %, potassium phosphate dibasic 0.5 wt %, and magnesium sulfate 0.5 wt %) for 18 hours or more, and then it was sub-cultured in an R2A broth for another 7 to 8 hours, and the aliquot of the fresh culture was used in the toxicity test. In addition, 80 μl of the cell culture liquid, 80 μl of 0.03 wt % aldehyde aqueous solution, and 40 μl of a toxic sample diluted to various concentrations were mixed in a test tube of a luminometer, […]

Experiment [2] has as its system oceanic luminescent bacterium (Vibrio sp. Isolate). As to the kind of experiment: microbe, parasite or virus in culture. In kind it is cell-based. To be noted: read-out: EC50 (decrease luminescence by 50%).
In experiment [3] the test system is YH-9. To be noted: YH9 strain. An excerpt: Then, the YH9 was transformed, and luminescent genes were introduced therein.

The structures appear in SMILES notation. ≈ marks a conversion by molar mass, not a printed value. Like-named read-outs stand apart in the source and are kept apart here.

As a reminder, the EC50 is the concentration at which the effect is half-maximal.

Turning to `c1ccccc1` [Benzene], the EC50 came out at 75.2 µg/mL (≈ 962 µM) in experiment [1] (5 min); 50.9 µg/mL (≈ 652 µM) in experiment [1] (10 min); 35.1 µg/mL (≈ 449 µM) in experiment [1] (0.25 h); 478 µg/mL (≈ 6120 µM) in experiment [2] (5 min); 607 µg/mL (≈ 7770 µM) in experiment [2] (10 min); 747 µg/mL (≈ 9570 µM) in experiment [2] (0.25 h).

Regarding `Oc1ccccc1` [Phenol], the EC50 was found to be 26.5 µg/mL (≈ 282 µM) in experiment [1] (5 min); 12 µg/mL (≈ 128 µM) in experiment [1] (10 min); 12.7 µg/mL (≈ 135 µM) in experiment [1] (0.25 h); 116 µg/mL (≈ 1230 µM) in experiment [2] (5 min); 105 µg/mL (≈ 1120 µM) in experiment [2] (10 min); 63.1 µg/mL (≈ 670 µM) in experiment [2] (0.25 h). In addition, the “MIC for phenol among various Gram-negative isolates” value in experiment [3] was “lowest MIC”.

For the compound `Cc1ccccc1` [Toluene], the EC50 turned out to be 5.61 µg/mL (≈ 60.9 µM) in experiment [1] (5 min, YH9-RC, 5 minutes); 5.65 µg/mL (≈ 61.3 µM) in experiment [1] (10 min, YH9-RC, 10 minutes); 6.3 µg/mL (≈ 68.4 µM) in experiment [1] (0.25 h, YH9-RC, 15 minutes); 87.1 µg/mL (≈ 945 µM) in experiment [2] (5 min); 120 µg/mL (≈ 1300 µM) in experiment [2] (10 min); 142 µg/mL (≈ 1540 µM) in experiment [2] (0.25 h, 15 minutes).

In the case of `Cc1ccc(C)cc1` [p-xylene], the 50% effective concentration (EC50) worked out at 45.3 µg/mL (≈ 427 µM) in experiment [1] (5 min, YH9-RC, 5 minutes); 37.7 µg/mL (≈ 355 µM) in experiment [1] (10 min, YH9-RC, 10 minutes); 49.8 µg/mL (≈ 469 µM) in experiment [1] (0.25 h, YH9-RC, 15 minutes); 27.4 µg/mL (≈ 258 µM) in experiment [2] (5 min); 105 µg/mL (≈ 990 µM) in experiment [2] (10 min); 63.1 µg/mL (≈ 594 µM) in experiment [2] (0.25 h, 15 minutes).
